Experimental data as given in patent publication US20080255215A1, “Combinations of Alkylalkanolamines and Alkylbisalkanolamines for Antimicrobial Compositions” (priority 2005, published 2008).

Columns and labels:
[1] = tested on: Pseudomonas aerguinosa (ATCC 15442); assay: Kinetic absorbance assay of bacterial growth (maximum growth slope), amines and amine pairs with KATHON 886MW biocide; type: cell-based; conditions: KATHON 100 ppm; for Maximum Growth Slope: pH 8.5
Method: A kinetic assay was run via absorbance measurements in a 384 well micro-titer plate with 75 μL) plate volume. Pseudomonas aerguinosa (ATCC 15442) was used as the inoculum for this kinetic assay. The organism was grown overnight in Trypticase Soy broth, pelleted, and resuspended in new medium at half its original density. The final inoculum was determined from plate counts on TSA plates spread at the time of use as 8.0×10E10 CFU/mL Each well of the microtiter plate (well volume=75 μL) was filled with 25 μL of a buffered aqueous solution of the amine being tested at the concentration necessary to yield the desired test concentration after dilution, enough Tris buffer to keep the well pH at 8.5, 25 μL of a biocide solution, and 25 μL reconstituted bacterial culture. The pH was adjusted to 8.5 with the buffer. The biocide was KATHON 886MW. The following amines were tested: butylaminoethanol (BAE, a compound according to formula I), butyldiethanolamine (BDEA, a compound according to formula II), octylaminoethanol (OAE, a compound according to formula I), and octyldiethanolamine (ODEA, a compound according to formula II), all at 99% purity): […]
The columns were laid out as follows:
The experiment ran for 20 hours with absorbance measurements taken once every 15 minutes. The data was processed by taking 10 point maximum growth slopes (milliOD per minute) after a 3 hour delay. The results of the above series are shown in FIG. 1, and selected data are tabulated in Table 2, in which biocide (KATHON) was used at a 100 ppm level.

[2] = tested on: Pseudomonas aerguinosa (ATCC 27853); assay: End-point absorbance assay of bacterial growth in 384 well microtiter plate, single amines with KATHON 886MW biocide; type: cell-based; conditions: for Effectiveness as an enhancer for the biocide: amine 400 ppm with KATHON 886MW up to 50 ppm, assessment in words; for End-point absorbance (660 nm): amine 400 ppm, 48 hours growth, pH 8.5
Method: A kinetic assay of bacterial growth in a 384 well microtiter plate was monitored by absorbance at 660 nm. The bacteria was Pseudomonas aerguinosa (ATCC 27853). The organism was grown overnight in Trypticase Soy Broth (TSB), pelleted, and resuspended in new medium at half its original density. The final inoculum was determined from plate counts on Trypticase Soy Agar (TSA) plates spread at the time of use as 4.5×10E10 CFU/mL. Each well of the microtiter plate (well volume=75 μL) was filled with 25 μL of a buffered aqueous solution of the amine being tested at the concentration necessary to yield the desired test concentration after dilution, enough Tris buffer to keep the well pH at 8.5, 25 μL of a biocide solution, and 25 μL reconstituted bacterial culture. The biocide solution and bacterial inoculum were mixed with TSB nutrient. The biocide utilized was KATHON 886MW (supplied by Rohm & Haas Company, Springhouse, Pa.). KATHON 886 MW is a 15% active solution of ⅔ CMIT (5-chloro-2-methyl-4-isothiazolin-3-one) and ⅓ MIT (2-methyl-4-isothiazolin-3-one). The experimental assessment of bacterial growth was made through an end-point absorbance measurement taken after 48 hours of growth in the various media. The concentration of the 4 different amines was 400 ppm. The concentration of the biocide was an experimental variable. The amines employed in this experiment were decyloxypropylaminopropylamine (DOPAPA), octylaminoethanol (OAE, a compound according to formula I), octyldiethanolamine (ODEA, a compound according to formula II), and dicyclohexylamine (DCHA). All absorbance values are the averages of at least three replicates.

[3] = amine 2000 ppm, 10 point maximum slope after 3 hour delay

Row | SMILES | Maximum Growth Slope ([1]; amine 1000 ppm) | Maximum Growth Slope [1, 3] | Effectiveness as an enhancer for the biocide [2] | End-point absorbance (660 nm) ([2]; KATHON 886MW loading 0 ppm) | End-point absorbance (660 nm) ([2]; KATHON 886MW loading 12 ppm) | End-point absorbance (660 nm) ([2]; KATHON 886MW loading 25 ppm) | End-point absorbance (660 nm) ([2]; KATHON 886MW loading 50 ppm) | Maximum Growth Slope ([1]; amine 250 ppm) | Maximum Growth Slope ([1]; amine 500 ppm) | Comparative effectiveness (runs of Table 2) ([1]; assessment in words)
1 | CCCCN(CCO)CCO [BDEA, butyldiethanolamine] | 1.3 MilliOD/min | 0.8 MilliOD/min | – | – | – | – | – | – | – | –
2 | CCCCCCCCCCOCCCNCCCN [DOPAPA, decyloxypropylaminopropylamine, reference compound] | – | – | weak or ineffective | app. 0.3 | app. 0.3 | app. 0.3 | app. 0.3 | – | – | –
3 | C1CCC(NC2CCCCC2)CC1 [DCHA, dicyclohexylamine, reference compound] | – | – | marginal enhancer | 0.14 | 0.14 | 0.10 | 0.07 | – | – | –
4 | CCCCCCCCN(CCO)CCO [ODEA, octyldiethanolamine] | – | – | moderately effective enhancer | 0.12 | 0.08 | 0.08 | 0.03 | 0.6 MilliOD/min | 0.4 MilliOD/min | –
5 | CCCCCCCCNCCO [OAE, octylaminoethanol] | – | – | excellent enhancer | 0 | 0 | 0 | 0 | 0.4 MilliOD/min | −0.1 MilliOD/min | –
6 | CCCCNCCO [BAE, butylaminoethanol] | 0.9 MilliOD/min | 0.4 MilliOD/min | – | – | – | – | – | – | – | more effective than BDEA alone
